The assay addresses T1, OrnR (STM OrnR, ornithine racemase) (Salmonella enterica, UniProt Q8ZNC6).
T1 sequence (Q8ZNC6 1-367): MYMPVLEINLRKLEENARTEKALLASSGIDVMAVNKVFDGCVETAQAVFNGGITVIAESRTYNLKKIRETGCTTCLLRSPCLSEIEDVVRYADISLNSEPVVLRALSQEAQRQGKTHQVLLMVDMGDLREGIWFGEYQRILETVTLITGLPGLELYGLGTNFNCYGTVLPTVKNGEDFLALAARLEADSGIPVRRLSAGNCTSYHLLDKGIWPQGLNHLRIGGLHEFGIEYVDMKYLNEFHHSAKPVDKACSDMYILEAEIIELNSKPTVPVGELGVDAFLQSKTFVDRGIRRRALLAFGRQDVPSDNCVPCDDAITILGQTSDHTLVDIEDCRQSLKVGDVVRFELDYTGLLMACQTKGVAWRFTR
To be noted: read-out: S0.5; D to L direction, pH 9.2, 37 °C, 0.8 mM PLP; sigmoid, Hill fit.

Among the data in paper PMC13397332 (Biochimica et biophysica acta. Proteins and proteomics, 2025) are Km values, retold here.

As for `NCCC[C@@H](N)C(=O)O` [D-ornithine], the Km worked out at 12.8 ± 2.7 mM.
